Experimental data reported in ChEMBL document CHEMBL3400093, “Synthesis and biological evaluation of novel tyrosyl-DNA phosphodiesterase 1 inhibitors with a benzopentathiepine moiety” (Bioorg Med Chem, 2015).
The source made the active and inactive calls. The calls are words filed in the database; no cut-off is given here.

How the values were obtained:
MCF7 [1] = experiment: Induction of apoptosis in human MCF7 cells assessed as P1 population at 100 uM after 24 hrs by annexin V-FITC/propidium iodide staining-based FACS flow cytometric analysis relative to control; assay type: functional
MCF7 [2] = experiment: Cytotoxicity against human MCF7 cells assessed as reduction In cell number after 72 hrs by MTT assay; assay type: functional; conditions: MCF7, 72 h
MCF7 [3] = experiment: Induction of apoptosis in human MCF7 cells assessed as P1 population at 200 uM after 24 hrs by annexin V-FITC/propidium iodide staining-based FACS flow cytometric analysis relative to control; assay type: functional
MCF7 [4] = experiment: Induction of apoptosis in human MCF7 cells assessed as P1 population at 200 uM after 48 hrs by annexin V-FITC/propidium iodide staining-based FACS flow cytometric analysis relative to control; assay type: functional
MCF7 [5] = experiment: Induction of apoptosis in human MCF7 cells assessed as apoptotic DNA fragments at 100 uM after 72 hrs by DNA gel electrophoresis assay; assay type: functional, cell-based
HepG2 [6] = experiment: Cytotoxicity against human HepG2 cells assessed as reduction In cell number after 72 hrs by MTT assay; assay type: functional; conditions: HepG2, 72 h
[7] = molecular target: Tyrosyl-DNA phosphodiesterase 1 (Homo sapiens, UniProt Q9NUW8); experiment: Inhibition of recombinant TDP1 (unknown origin) assessed as increase in fluorescence
Tyrosyl-DNA phosphodiesterase 1, sequence (Q9NUW8 whole entry): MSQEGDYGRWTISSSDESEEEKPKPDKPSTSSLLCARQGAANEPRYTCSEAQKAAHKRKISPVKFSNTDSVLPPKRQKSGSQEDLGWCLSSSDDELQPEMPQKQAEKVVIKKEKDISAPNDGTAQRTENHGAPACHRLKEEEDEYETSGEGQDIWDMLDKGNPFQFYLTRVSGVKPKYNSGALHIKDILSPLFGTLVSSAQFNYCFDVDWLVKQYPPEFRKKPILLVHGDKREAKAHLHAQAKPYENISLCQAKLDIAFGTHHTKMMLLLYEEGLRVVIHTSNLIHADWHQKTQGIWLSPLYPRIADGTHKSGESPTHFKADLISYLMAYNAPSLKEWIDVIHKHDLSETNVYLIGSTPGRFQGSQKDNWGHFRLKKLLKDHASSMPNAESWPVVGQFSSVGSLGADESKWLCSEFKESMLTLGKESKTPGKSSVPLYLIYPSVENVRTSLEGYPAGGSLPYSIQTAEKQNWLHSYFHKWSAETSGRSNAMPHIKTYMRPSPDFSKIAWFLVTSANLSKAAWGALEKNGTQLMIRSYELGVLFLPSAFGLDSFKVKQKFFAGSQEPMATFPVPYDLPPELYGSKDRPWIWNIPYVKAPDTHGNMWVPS

MCF7 [8] = experiment: Induction of apoptosis in human MCF7 cells assessed as P2 population at 200 uM after 48 hrs by annexin V-FITC/propidium iodide staining-based FACS flow cytometric analysis (reference value: 13.5%); assay type: functional
HepG2 [9] = experiment: Cytotoxicity against human HepG2 cells assessed as condensation of nuclei, shrinkage of the cytoplasm, convolution of outlines, budding and formation of apoptotic bodies at 200 uM after 24 hrs by light microscopy; assay type: functional, cell-based
MCF7 [10] = experiment: Cytotoxicity against human MCF7 cells assessed as condensation of nuclei, shrinkage of the cytoplasm, convolution of outlines, budding and formation of apoptotic bodies at 200 uM after 24 hrs by light microscopy; assay type: functional, cell-based
MCF7 [11] = experiment: Cytotoxicity against human MCF7 cells assessed as condensation of nuclei, shrinkage of the cytoplasm, convolution of outlines, budding and formation of apoptotic bodies at 40 uM after 24 hrs by light microscopy; assay type: functional, cell-based
MCF7 [12] = experiment: Induction of apoptosis in human MCF7 cells assessed as P2 population at 100 uM after 48 hrs by annexin V-FITC/propidium iodide staining-based FACS flow cytometric analysis (reference value: 13.5%); assay type: functional
HepG2 [13] = experiment: Cytotoxicity against human HepG2 cells assessed as condensation of nuclei, shrinkage of the cytoplasm, convolution of outlines, budding and formation of apoptotic bodies at 40 uM after 24 hrs by light microscopy; assay type: functional, cell-based
MCF7 [14] = experiment: Induction of apoptosis in human MCF7 cells assessed as P1 population at 100 uM after 48 hrs by annexin V-FITC/propidium iodide staining-based FACS flow cytometric analysis relative to control; assay type: functional

Row | IC50 [7] [µM] | SMILES | CC50 (MCF7 [2]) [µM] | Activity (MCF7 [3]) [%] | Activity (MCF7 [4]) [%] | Activity (MCF7 [5]) | other results
1 | 1.28 | O=C(CN1CCCCC1)Nc1cc(C(F)(F)F)cc2c1SSSSS2 | 19.3 | 0 | 0.9 | Active | Activity (MCF7 [1]): 0%; CC50 (HepG2 [6]): 24.4 µM
2 | > 10 | O=C(CN1CCCCC1)Nc1ccccc1 |  |  |  |  | 
3 | 3.66 | O=C(CCN1CCCCC1)Nc1cc(C(F)(F)F)cc2c1SSSSS2 |  |  |  |  | 
4 | 1.62 | O=C(CN1CCOCC1)Nc1cc(C(F)(F)F)cc2c1SSSSS2 |  |  |  |  | 
5 | 1.3 | O=C(CCN1CCOCC1)Nc1cc(C(F)(F)F)cc2c1SSSSS2 |  |  |  |  | 
6 | > 10 | O=C(CN1CCCC1)Nc1ccccc1 |  |  |  |  | 
7 | 6.03 | O=C(CCN1CCCC1)Nc1cc(C(F)(F)F)cc2c1SSSSS2 |  |  |  |  | 
8 | 3.7 | O=C(CN1CCCC1)Nc1cc(C(F)(F)F)cc2c1SSSSS2 |  |  |  |  | 
9 | > 10 | Nc1cc(C(F)(F)F)cc2c1SSSSS2 | 14 | 0 | 0.8 | Active | Activity (MCF7 [1]): 0%; CC50 (HepG2 [6]): 26.6 µM
10 | > 10 | O=C(Nc1cc(C(F)(F)F)cc2c1SSSSS2)C(F)(F)F | 21 | 8.3 | 20.1 | Active | Activity (MCF7 [1]): 1.2%; Activity (MCF7 [8]): 33.6%; inhibition (HepG2 [9]): Active; inhibition (MCF7 [10]): Active; inhibition (MCF7 [11]): Active; Activity (MCF7 [12]): 23%; inhibition (HepG2 [13]): Active; Activity (MCF7 [14]): 9.5%
11 | 0.22 | CCCCN(CCCC)CC(=O)Nc1cc(C(F)(F)F)cc2c1SSSSS2 | 28.1 | 1.51 | 10.5 | Active | CC50 (HepG2 [6]): > 100 µM
